Reference: patent US6525043B2, “Use of ion channel modulating agents” (NeuroSearch A/S, priority 1999, dated 2003)

Target: T1, Intermediate-conductance Ca2+-activated K+ channels (IK channels) (Homo sapiens, UniProt O15554)
T1 construct: expressed in transfected cells
Assay: Whole-cell patch-clamp recording of ionic current through IK channels stably expressed in HEK293 cells
Assay type: cell-based
Details: hIK in HEK293 cells, voltage-ramps -100 to +100 mV, free Ca2+ 100 nM, room temperature
Description: In this experiment the ionic current through Intermediate-conductance Ca^2+-activated K^+channels (IK channels) is recorded in the whole-cell mode of the patch-clamp technique.
Intermediate-conductance Ca^2+-activated K^+ channels (IK channels) have been cloned from human placenta and stably expressed in HEK293 cells.
Human IK (hIK) was excised from pT3T7 (GenBank Acc. No. N56819) using EcoR I and Not I and sub-cloned into the mammalian expression vector pNS1Z (NeuroSearch), a custom designed derivative of pcDNA3Zeo (InVitrogen) to give the plasmid construct pNS1Z13 hIK. HEK293 tissue culture cells were grown in DMEM (Dulbecco's Modified Eagle Medium) supplemented with 10% FCS (foetal calf serum) at 37° C. in 5% CO2. […]
Experiments are carried out on one of several patch-clamp set-ups. […] Data are stored directly on the hard-disk and analysed by the IGOR software (Wavemetrics, Lake Oswega, Oreg., USA).
The whole-cell configuration of the patch clamp technique is applied. […] Cell capacitance is electronically compensated and the resistance between the pipette and the cell interior (the series resistance, Rs) is measured and compensated for. […]
The intracellular (pipette) solution has the following composition (conc. in mM): 144 KCl, 10 EGTA, 1.4 MgCl2, 5.17 CaCl2, and 10 HEPES (pH=7.2). The calculated free concentration of Ca^2+ in this solution is 100 nM and that of Mg^2+ is 1 mM. […]

Row | Structure (SMILES) | SC100 (Stimulating Concentration required to induce a 100% increase (doubling) in the basal current)
1 | ON=C1c2ccccc2-c2ccccc21 [9H-9-fluorenone-oxime] | 0.08 µM
2 | c1ccc2c(c1)[nH]c1ccccc12 [Carbazole, carbazole] | 0.2 µM
